From PubChem BioAssay AID258 (DTP/NCI, 2004)
Several values for one entry are separate records, joined by “and”; a condition that tells them apart may be missing. Equal values may be shown once. Inconclusive results and toxic doses are left out.

Test system: CD2F1 mice, L1210 leukemia sc, survival T/C
Assay: NCI In Vivo Anticancer Drug Screen. Data for tumor model L1210 Leukemia (subcutaneous) in CD2F1 (CDF1) mice
Conditions: higher = longer survival
Procedure, shortened: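 Transplantable tumor-bearing mice were treated with compound; survival or tumor size measured and expressed as treated-group value (T) divided by vehicle-treated control value (C).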

[1] = endpoint: median survival time, dose: 6.0 mg/kg/injection, schedule: Q01DX009 (ip), vehicle: saline
[2] = endpoint: median survival time, dose: 6.25 mg/kg/injection, schedule: Q01DX009 (ip), vehicle: saline
[3] = endpoint: median survival time, dose: 12.5 mg/kg/injection, schedule: Q01DX009 (ip), vehicle: saline
[4] = endpoint: median survival time, dose: 16.0 mg/kg/injection, schedule: Q01DX009 (sc), vehicle: saline
[5] = endpoint: median survival time, dose: 1.5 mg/kg/injection, schedule: Q01DX009 (ip), vehicle: saline
[6] = endpoint: median survival time, dose: 3.0 mg/kg/injection, schedule: Q01DX009 (ip), vehicle: saline

O=c1[nH]cc(F)c(=O)[nH]1
T/C (endpoint: median survival time, dose: 2.5 mg/kg/injection, schedule: Q01DX009 (ip), vehicle: saline): 109 % of control and 94 % of control
T/C (endpoint: median survival time, dose: 5.0 mg/kg/injection, schedule: Q01DX009 (ip), vehicle: saline): 101 % of control and 106 % of control
T/C [1]: 111 % of control
T/C (endpoint: median survival time, dose: 6.0 mg/kg/injection, schedule: Q01DX009 (sc), vehicle: saline): 110 % of control
T/C [2]: 93 % of control
T/C (endpoint: median survival time, dose: 10.0 mg/kg/injection, schedule: Q01DX009 (ip), vehicle: saline): 108 % of control and 114 % of control and 117 % of control
T/C (endpoint: median survival time, dose: 10.0 mg/kg/injection, schedule: Q01DX009 (sc), vehicle: saline): 102 % of control
T/C (endpoint: median survival time, dose: 12.5 mg/kg/injection, schedule: Q01DX006 (ip), vehicle: saline): 105 % of control
T/C [3]: 112 % of control
T/C (endpoint: median survival time, dose: 12.5 mg/kg/injection, schedule: Q02DX005 (ip), vehicle: saline): 111 % of control
T/C [4]: 150 % of control
T/C (endpoint: median survival time, dose: 20.0 mg/kg/injection, schedule: Q01DX009 (sc), vehicle: saline): 118 % of control
T/C (endpoint: median survival time, dose: 24.0 mg/kg/injection, schedule: Q01DX009 (ip), vehicle: saline): 155 % of control
T/C (endpoint: median survival time, dose: 24.0 mg/kg/injection, schedule: Q01DX009 (sc), vehicle: saline): 152 % of control and 168 % of control
T/C (endpoint: median survival time, dose: 25.0 mg/kg/injection, schedule: Q02DX005 (ip), vehicle: saline): 112 % of control
T/C (endpoint: median survival time, dose: 25.0 mg/kg/injection, schedule: Q04DX003 (ip), vehicle: saline): 100 % of control
T/C (endpoint: median survival time, dose: 26.7 mg/kg/injection, schedule: Q01DX009 (sc), vehicle: saline): 152 % of control
T/C (endpoint: median survival time, dose: 40.0 mg/kg/injection, schedule: Q01DX009 (ip), vehicle: saline): 104 % of control and 114 % of control and 94 % of control
T/C (endpoint: median survival time, dose: 40.0 mg/kg/injection, schedule: Q01DX009 (sc), vehicle: saline): 151 % of control and 160 % of control
T/C (endpoint: median survival time, dose: 48.0 mg/kg/injection, schedule: Q01DX009 (ip), vehicle: saline): 102 % of control
T/C (endpoint: median survival time, dose: 48.0 mg/kg/injection, schedule: Q01DX009 (sc), vehicle: saline): 117 % of control
T/C (endpoint: median survival time, dose: 50.0 mg/kg/injection, schedule: Q01DX001 (ip), vehicle: saline): 111 % of control
T/C (endpoint: median survival time, dose: 50.0 mg/kg/injection, schedule: Q01DX009 (ip), vehicle: saline): 150 % of control
T/C (endpoint: median survival time, dose: 50.0 mg/kg/injection, schedule: Q04DX003 (ip), vehicle: saline): 100 % of control
T/C (endpoint: median survival time, dose: 60.0 mg/kg/injection, schedule: Q01DX009 (sc), vehicle: saline): 161 % of control
T/C (endpoint: median survival time, dose: 65.0 mg/kg/injection, schedule: Q01DX Z (sc), vehicle: saline): 112 % of control
T/C (endpoint: median survival time, dose: 80.0 mg/kg/injection, schedule: Q01DX009 (ip), vehicle: saline): 103 % of control
T/C (endpoint: median survival time, dose: 96.0 mg/kg/injection, schedule: Q01DX009 (ip), vehicle: saline): 91 % of control
T/C (endpoint: median survival time, dose: 96.0 mg/kg/injection, schedule: Q01DX009 (sc), vehicle: saline): 88 % of control
T/C (endpoint: median survival time, dose: 100.0 mg/kg/injection, schedule: Q01DX001 (ip), vehicle: saline): 122 % of control
T/C (endpoint: median survival time, dose: 100.0 mg/kg/injection, schedule: Q02DX005 (ip), vehicle: saline): 175 % of control
T/C (endpoint: median survival time, dose: 100.0 mg/kg/injection, schedule: Q04DX003 (ip), vehicle: saline): 155 % of control
T/C (endpoint: median survival time, dose: 108.0 mg/kg/injection, schedule: Q01DX Z (sc), vehicle: saline): 112 % of control
T/C (endpoint: median survival time, dose: 180.0 mg/kg/injection, schedule: Q01DX Z (sc), vehicle: saline): 108 % of control
T/C (endpoint: median survival time, dose: 400.0 mg/kg/injection, schedule: Q01DX001 (ip), vehicle: saline): 122 % of control

COc1cccc2c1C(=O)c1c(O)c3c(c(O)c1C2=O)C[C@@](O)(C(C)=O)C[C@@H]3OC1CC(N)C(O)C(C)O1 (some centres not stated)
T/C (endpoint: median survival time, dose: 0.25 mg/kg/injection, schedule: Q01DX009 (ip), vehicle: saline): 97 % of control and 100 % of control
T/C (endpoint: median survival time, dose: 0.25 mg/kg/injection, schedule: Q01DX009 (sc), vehicle: saline): 98 % of control
T/C (endpoint: median survival time, dose: 0.5 mg/kg/injection, schedule: Q01DX009 (ip), vehicle: saline): 96 % of control and 98 % of control
T/C (endpoint: median survival time, dose: 0.5 mg/kg/injection, schedule: Q01DX009 (sc), vehicle: saline): 104 % of control
T/C (endpoint: median survival time, dose: 1.0 mg/kg/injection, schedule: Q01DX009 (ip), vehicle: saline): 101 % of control and 96 % of control (2×)
T/C (endpoint: median survival time, dose: 1.0 mg/kg/injection, schedule: Q01DX009 (sc), vehicle: saline): 107 % of control
T/C [5]: 100 % of control
T/C (endpoint: median survival time, dose: 2.0 mg/kg/injection, schedule: Q01DX009 (ip), vehicle: saline): 101 % of control and 102 % of control and 98 % of control
T/C (endpoint: median survival time, dose: 2.0 mg/kg/injection, schedule: Q01DX009 (sc), vehicle: saline): 109 % of control
T/C [6]: 97 % of control
T/C (endpoint: median survival time, dose: 4.0 mg/kg/injection, schedule: Q01DX009 (ip), vehicle: saline): 98 % of control
T/C (endpoint: median survival time, dose: 4.0 mg/kg/injection, schedule: Q01DX009 (sc), vehicle: saline): 120 % of control
T/C [4]: 118 % of control
T/C (endpoint: median survival time, dose: 23.0 mg/kg/injection, schedule: Q01DX Z (sc), vehicle: water): 120 % of control

Nc1ccn(C2OC(COP(=O)(O)O)C(O)C2O)c(=O)n1 (configuration not stated)
T/C (endpoint: mean survival time, dose: 22.5 mg/kg/injection, schedule: Q ##X009 (ip), vehicle: saline): 181 % of control
T/C (endpoint: mean survival time, dose: 45.0 mg/kg/injection, schedule: Q ##X009 (ip), vehicle: saline): 206 % of control
T/C (endpoint: mean survival time, dose: 90.0 mg/kg/injection, schedule: Q ##X009 (ip), vehicle: saline): 161 % of control
T/C (endpoint: mean survival time, dose: 180.0 mg/kg/injection, schedule: Q ##X009 (ip), vehicle: saline): 176 % of control
T/C (endpoint: median survival time, dose: 22.5 mg/kg/injection, schedule: Q ##X009 (ip), vehicle: saline): 179 % of control
T/C (endpoint: median survival time, dose: 22.5 mg/kg/injection, schedule: Q## X Z (ip), vehicle: saline): 188 % of control
T/C (endpoint: median survival time, dose: 45.0 mg/kg/injection, schedule: Q ##X009 (ip), vehicle: saline): 198 % of control
T/C (endpoint: median survival time, dose: 45.0 mg/kg/injection, schedule: Q## X Z (ip), vehicle: saline): 211 % of control
T/C (endpoint: median survival time, dose: 90.0 mg/kg/injection, schedule: Q ##X009 (ip), vehicle: saline): 175 % of control
T/C (endpoint: median survival time, dose: 90.0 mg/kg/injection, schedule: Q## X Z (ip), vehicle: saline): 183 % of control
T/C (endpoint: median survival time, dose: 180.0 mg/kg/injection, schedule: Q ##X009 (ip), vehicle: saline): 169 % of control
T/C (endpoint: median survival time, dose: 180.0 mg/kg/injection, schedule: Q## X Z (ip), vehicle: saline): 177 % of control

O=C(O)c1cc(=O)[nH]c(=O)[nH]1
T/C (endpoint: median survival time, dose: 300.0 mg/kg/injection, schedule: Q01DX Z (sc), vehicle: saline): 100 % of control

O=C1c2ccccc2C(=O)c2c(NCCNCCO)ccc(O)c21
T/C (endpoint: median survival time, dose: 5.0 mg/kg/injection, schedule: Q01DX009 (ip), vehicle: suspension in saline): 103 % of control and 104 % of control
T/C (endpoint: median survival time, dose: 10.0 mg/kg/injection, schedule: Q01DX009 (ip), vehicle: suspension in saline): 103 % of control and 106 % of control
T/C (endpoint: median survival time, dose: 20.0 mg/kg/injection, schedule: Q01DX009 (ip), vehicle: suspension in saline): 104 % of control and 108 % of control
T/C (endpoint: median survival time, dose: 40.0 mg/kg/injection, schedule: Q01DX009 (ip), vehicle: suspension in saline): 103 % of control and 106 % of control
T/C (endpoint: median survival time, dose: 80.0 mg/kg/injection, schedule: Q01DX009 (ip), vehicle: suspension in saline): 114 % of control and 116 % of control

NCCCNCCCCNC(=O)C(O)NC(=O)CCCCCCN=C(N)N (configuration not stated)
T/C (endpoint: median survival time, dose: 0.75 mg/kg/injection, schedule: Q01DX009 (ip), vehicle: saline): 156 % of control
T/C [5]: 172 % of control
T/C (endpoint: median survival time, dose: 1.56 mg/kg/injection, schedule: Q01DX009 (ip), vehicle: saline): 162 % of control and 183 % of control
T/C [6]: 192 % of control
T/C (endpoint: median survival time, dose: 3.12 mg/kg/injection, schedule: Q01DX009 (ip), vehicle: saline): 198 % of control and 203 % of control
T/C (endpoint: median survival time, dose: 4.0 mg/kg/injection, schedule: Q01DX001 (ip), vehicle: saline): 107 % of control
T/C (endpoint: median survival time, dose: 4.0 mg/kg/injection, schedule: Q03HX008 (ip), vehicle: saline): 121 % of control
T/C [1]: 237 % of control
T/C [2]: 207 % of control and 235 % of control
T/C (endpoint: median survival time, dose: 8.0 mg/kg/injection, schedule: Q01DX001 (ip), vehicle: saline): 103 % of control and 109 % of control
T/C (endpoint: median survival time, dose: 12.0 mg/kg/injection, schedule: Q01DX009 (ip), vehicle: saline): 239 % of control
T/C [3]: 228 % of control and 231 % of control
T/C (endpoint: median survival time, dose: 16.0 mg/kg/injection, schedule: Q01DX001 (ip), vehicle: saline): 107 % of control and 113 % of control
T/C (endpoint: median survival time, dose: 25.0 mg/kg/injection, schedule: Q01DX009 (ip), vehicle: saline): 160 % of control and 220 % of control and 275 % of control
T/C (endpoint: median survival time, dose: 32.0 mg/kg/injection, schedule: Q01DX001 (ip), vehicle: saline): 115 % of control and 123 % of control

Cc1cc(NCCCCCCCNc2cc(C)nc3cc(N)ccc23)c2ccc(N)cc2n1
T/C (endpoint: median survival time, dose: 1.56 mg/kg/injection, schedule: Q01DX009 (ip), vehicle: water): 100 % of control and 104 % of control and 98 % of control
T/C (endpoint: median survival time, dose: 3.12 mg/kg/injection, schedule: Q01DX009 (ip), vehicle: water): 109 % of control and 110 % of control and 121 % of control
T/C (endpoint: median survival time, dose: 6.25 mg/kg/injection, schedule: Q01DX009 (ip), vehicle: water): 120 % of control
T/C (endpoint: median survival time, dose: 12.5 mg/kg/injection, schedule: Q01DX009 (ip), vehicle: water): 156 % of control and 175 % of control
T/C (endpoint: median survival time, dose: 25.0 mg/kg/injection, schedule: Q01DX009 (ip), vehicle: water): 120 % of control
